Source: US20210046106A1, “METHODS OF TREATING CANCER WITH ANDROGEN DEPRIVATION THERAPY IN COMBINATION WITH AN INHIBITOR OF THE SP1 TRANSCRIPTION FACTOR” (The Board of Trustees of the Leland Stanford Junior …, priority 2019, published 2021)

Key:
[1] = system: GI epithelium; assay: Preclinical: radiosensitization of normal GI epithelium; settings: preclinical studies
[2] = system: tumor in irradiated field; assay: Phase 1 trial: tumor response in irradiated field (imaging); type: in vivo, human; design: key: CR resolution of uptake; PR decrease in extent of involvement (# and size of lesion ≥ 50% observed); SD same extent of involvement (# and size of lesions)
Text: All but one patient received palliative radiation therapy to symptomatic bone metastases. Quantitation of response in bone is difficult and imprecise. Furthermore, patients were imaged as per standard of care, using a variety of imaging modalities, including bone scan, which is not applicable to RECIST scoring. […] There was no apparent dose response relationship.

[3] = SECAR study, cited from earlier work
[4] = system: breast and ovarian cancer cell lines; settings: 2 mg/kg, subcutaneous injection; cited from earlier work
[5] = system: PSA; assay: Phase 1 trial: PSA in the subset of patients with prostate cancer; type: in vivo, human
Text: There was no evidence of a selenite dose response relationship, but patient numbers were too small and the patients too heterogeneous to draw a definitive conclusion about the presence or absence of a dose response relationship. Of note, patients were maintained on whatever ADT they were on before study entry, as discontinuation of ADT could have been even more of a confounding variable.

[6] = system: prostate cancer tumors; assay: Preclinical: growth of well-established prostate cancer tumors in mice; settings: i.p. and p.o.
[7] = Phase 1 trial: Brief Pain Inventory; type: in vivo, human; settings: 10 point scale
Protocol: They also completed another pain inventory.
The pain inventory captured four categories of pain as follows: worst pain in last 24 hours, least pain in last 24 ours, average pain and pain right now. Pain was scored using a 10 point scale, on which 0 was no pain and 10 was severe pain. […] A change of at least one point was felt to be clinically meaningful.

[8] = 5.5 mg cohort (N=3), First follow-up
[9] = 11 mg cohort (N=3), First follow-up
[10] = 16.5 mg cohort (N=3), End of RT
[11] = 16.5 mg cohort (N=3), First follow-up
[12] = 33 mg cohort (N=5), First follow-up
[13] = 49.5 mg cohort (N=1), End of RT
[14] = 49.5 mg cohort (N=1), First follow-up

O=[Se](O)O [sodium selenite, Sodium selenite pentahydrate]
sensitization of GI epithelium to radiation [1]: did not sensitize GI epithelium to radiation | Tumor Response in Irradiated Field ([2]; patient 2 (prostate, 5.5 mg), Field 1, bone, BS 2 mo.): CR | Tumor Response in Irradiated Field ([2]; patient 2 (prostate, 5.5 mg), Field 2, bone, BS 2 mo.): PR (PR decrease in extent of involvement (# and size of lesion ≥ 50% observed)) | Tumor Response in Irradiated Field ([2]; patient 3 (prostate, 5.5 mg), bone, BS 1 mo.): SD | Tumor Response in Irradiated Field ([2]; patient 4 (prostate, 11 mg), bone, BS 1 mo.): CR | Tumor Response in Irradiated Field ([2]; patient 5 (prostate, 11 mg), bone, BS 3 mo., ↓ intensity of uptake): SD ( ↓ Intensity of uptake) | Tumor Response in Irradiated Field ([2]; patient 6 (prostate, 11 mg), bone, BS 5 mo., change from diffuse to patch involvement): PR (Change from diffuse to patch involvement (PR decrease in extent of involvement (# and size of lesion ≥ 50% observed)) | Tumor Response in Irradiated Field ([2]; patient 7 (prostate, 16.5 mg), bone, BS 1 mo., ↓ intensity of uptake): SD (↓ intensity of uptake) | Tumor Response in Irradiated Field ([2]; patient 8 (prostate, 16.5 mg), bone, MRI 2 mo.): SD | Tumor Response in Irradiated Field ([2]; patient 9 (prostate, 16.5 mg), bone, CT and MRI 3 mo.): SD | Tumor Response in Irradiated Field ([2]; patient 10 (prostate, 33 mg), Field 1, bone, CT 4 mo.): PD (PD ≥ 20% ↑ sum of diameters) | Tumor Response in Irradiated Field ([2]; patient 10 (prostate, 33 mg), Field 2, bone, CT 4 mo.): SD | Tumor Response in Irradiated Field ([2]; patient 11 (multiple myeloma, 33 mg), bone, PET-CT 6 mo., almost complete metabolic resolution): PR (almost complete metabolic resolution) (PR ≥ 30% ↓ sum of diameters) | Tumor Response in Irradiated Field ([2]; patient 12 (MPNST, 33 mg), lymph node, CT 1 mo.): SD | Tumor Response in Irradiated Field ([2]; patient 13 (NSCLC, 33 mg), bone, CT, MRI and PET-CT 1 mo.): PD (PD ≥ 20% ↑ sum of diameters) | Tumor Response in Irradiated Field ([2]; patient 15 (NSCLC, 49.5 mg), bone, BS 2 mo.): SD | MTD ([3]; i.v. daily for 5 consecutive days for 2 or 4 weeks, 34 patients): 10.2 mg/m^2 | most common side effects ([3]; i.v.): fatigue, nausea and cramps in fingers and legs | effects on the host [4]: without apparent ill effects on the host | PSA % Change ([5]; patient 2, 5.5 mg cohort, FU visit 2 M vs Day 1): −77.9% | PSA Value FU ([5]; patient 2, 5.5 mg cohort, FU visit 2 M, Day 1 PSA 39.83): 8.79 ng/mL | PSA % Change ([5]; patient 3, 5.5 mg cohort, FU visit 2.25 M vs Day 1): 6.2% | PSA Value FU ([5]; patient 3, 5.5 mg cohort, FU visit 2.25 M, Day 1 PSA 225): 239 ng/mL | PSA % Change ([5]; patient 4, 11 mg cohort, FU visit 3.25 M vs Day 1): −72.9% | PSA Value FU ([5]; patient 4, 11 mg cohort, FU visit 3.25 M, Day 1 PSA 131.83): 35.77 ng/mL | PSA % Change ([5]; patient 5, 11 mg cohort, FU visit 4 M vs Day 1): −52.6% | PSA Value FU ([5]; patient 5, 11 mg cohort, FU visit 4 M, Day 1 PSA 40.61): 19.25 ng/mL | PSA % Change ([5]; patient 6, 11 mg cohort, FU visit 4 M vs Day 1): −67.3% | PSA Value FU ([5]; patient 6, 11 mg cohort, FU visit 4 M, Day 1 PSA 0.98): 0.32 ng/mL | PSA % Change ([5]; patient 7, 16.5 mg cohort, FU visit 2.25 M vs Day 1): 1155.7% | PSA Value FU ([5]; patient 7, 16.5 mg cohort, FU visit 2.25 M, Day 1 PSA 1.74): 21.85 ng/mL | PSA % Change ([5]; patient 8, 16.5 mg cohort, FU visit 2.75 M vs Day 1): −59.4% | PSA Value FU ([5]; patient 8, 16.5 mg cohort, FU visit 2.75 M, Day 1 PSA 3.3): 1.34 ng/mL | PSA % Change ([5]; patient 9, 16.5 mg cohort, FU visit 3.25 M vs Day 1): −11% | PSA Value FU ([5]; patient 9, 16.5 mg cohort, FU visit 3.25 M, Day 1 PSA 1): 0.89 ng/mL | PSA % Change ([5]; patient 10, 33 mg cohort, FU visit 3 M vs Day 1): −67.1% | PSA Value FU ([5]; patient 10, 33 mg cohort, FU visit 3 M, Day 1 PSA 196): 64.46 ng/mL | decrease in PSA, range ([5]; the seven of nine prostate cancer patients with a decrease, first follow up 2-4 months after RT): 11-78% | toxicity at the growth-inhibiting doses [6]: no detectable toxicity | Average Pain, average change from baseline, Mean ± SD ([7]; 5.5 mg cohort (N=3), End of RT): −2.5 ± 0.7 | Least Pain Last 24 Hrs, average change from baseline, Mean ± SD ([7]; 5.5 mg cohort (N=3), End of RT): −1.5 ± 2.1 | Pain Right Now, average change from baseline, Mean ± SD ([7]; 5.5 mg cohort (N=3), End of RT): −2 ± 0 | Worst Pain Last 24 Hrs, average change from baseline, Mean ± SD ([7]; 5.5 mg cohort (N=3), End of RT): −4 ± 1.4 | Average Pain, average change from baseline, Mean ± SD [7, 8]: −1.5 ± 0.7 | Least Pain Last 24 Hrs, average change from baseline, Mean ± SD [7, 8]: −1.5 ± 1.4 | Pain Right Now, average change from baseline, Mean ± SD [7, 8]: −2 ± 0 | Worst Pain Last 24 Hrs, average change from baseline, Mean ± SD [7, 8]: −2.5 ± 0.7 | Average Pain, average change from baseline, Mean ± SD ([7]; 11 mg cohort (N=3), End of RT): −2.3 ± 4.0 | Least Pain Last 24 Hrs, average change from baseline, Mean ± SD ([7]; 11 mg cohort (N=3), End of RT): −2.7 ± 3.8 | Pain Right Now, average change from baseline, Mean ± SD ([7]; 11 mg cohort (N=3), End of RT): 1.7 ± 2.9 | Worst Pain Last 24 Hrs, average change from baseline, Mean ± SD ([7]; 11 mg cohort (N=3), End of RT): −1.7 ± 1.5 | Average Pain, average change from baseline, Mean ± SD [7, 9]: −0.7 ± 4.6 | Least Pain Last 24 Hrs, average change from baseline, Mean ± SD [7, 9]: −1.3 ± 4.9 | Pain Right Now, average change from baseline, Mean ± SD [7, 9]: 1.7 ± 1.2 | Worst Pain Last 24 Hrs, average change from baseline, Mean ± SD [7, 9]: −0.7 ± 5.0 | Average Pain, average change from baseline, Mean ± SD [7, 10]: −1.5 ± 3.5 | Least Pain Last 24 Hrs, average change from baseline, Mean ± SD [7, 10]: −1 ± 2.8 | Pain Right Now, average change from baseline, Mean ± SD [7, 10]: −0.5 ± 2.1 | Worst Pain Last 24 Hrs, average change from baseline, Mean ± SD [7, 10]: −1 ± 1.4 | Average Pain, average change from baseline, Mean ± SD [7, 11]: −2 ± 2 | Least Pain Last 24 Hrs, average change from baseline, Mean ± SD [7, 11]: −2.3 ± 2.1 | Pain Right Now, average change from baseline, Mean ± SD [7, 11]: −2.7 ± 3.8 | Worst Pain Last 24 Hrs, average change from baseline, Mean ± SD [7, 11]: −0.7 ± 0.6 | Average Pain, average change from baseline, Mean ± SD ([7]; 33 mg cohort (N=5), End of RT): −1.2 ± 1.3 | Least Pain Last 24 Hrs, average change from baseline, Mean ± SD ([7]; 33 mg cohort (N=5), End of RT): −0.2 ± 0.5 | Pain Right Now, average change from baseline, Mean ± SD ([7]; 33 mg cohort (N=5), End of RT): −0.6 ± 1.1 | Worst Pain Last 24 Hrs, average change from baseline, Mean ± SD ([7]; 33 mg cohort (N=5), End of RT): −1 ± 2 | Average Pain, average change from baseline, Mean ± SD [7, 12]: −1 ± 1 | Least Pain Last 24 Hrs, average change from baseline, Mean ± SD [7, 12]: 0 ± 1 | Pain Right Now, average change from baseline, Mean ± SD [7, 12]: −0.8 ± 1.3 | Worst Pain Last 24 Hrs, average change from baseline, Mean ± SD [7, 12]: −2 ± 2 | Average Pain, average change from baseline, Mean ± SD [7, 13]: −4.5 ± 0 | Least Pain Last 24 Hrs, average change from baseline, Mean ± SD [7, 13]: −5 ± 0 | Pain Right Now, average change from baseline, Mean ± SD [7, 13]: −4 ± 0 | Worst Pain Last 24 Hrs, average change from baseline, Mean ± SD [7, 13]: −6 ± 0 | Average Pain, average change from baseline, Mean ± SD [7, 14]: −8.5 ± 0 | Least Pain Last 24 Hrs, average change from baseline, Mean ± SD [7, 14]: −9 ± 0 | Pain Right Now, average change from baseline, Mean ± SD [7, 14]: −8 ± 0 | Worst Pain Last 24 Hrs, average change from baseline, Mean ± SD [7, 14]: −10 ± 0
